Data: patent US20120178626A1, “SYNERGISTIC HERBICIDAL COMPOSITION CONTAINING PROPYZAMIDE AND BENFLURALIN” (DOW AGROSCIENCES LLC, priority 2011, published 2012)

Tests used:
Experiment in all cases: Field trial, percent visual weed control, soil-applied tank mixes
Format in all cases: in vivo
Details in all cases: applied to soil
[1] = system: Shepherds purse (Capsella bursa-pastoris, CAPBP)
Experimental: (§1) These trials were conducted under field conditions in USA. Trial sites were located in California. The trials were conducted using normal small plot research methodology. Trial plots were between 2 to 4.5 meters (m) wide by 5.5 to 10 m long. All treatments were applied using a randomized complete block trial design with 4 replications per treatment. The trial sites had naturally occurring populations of weeds. The weed spectrum included, but was not limited to, redroot pigweed (Amaranthus retroflexus, AMARE), Shepherds purse (Capsella bursa-pastoris, CAPBP) and Venice mallow (Hibiscus trionum, HIBTR). Treatments consisted of tank mixes of the commercial formulations of propyzamide and benfluralin applied in water directly to the soil. The application volumes were between 93.5 to 187 liters per hectare (L/ha). All application were made using precision gas backpack hand sprayers using a 2 or 3 m boom using flat fan (80° or 110°) nozzles to broadcast the treatments on the soil.
(§2) The treated plots and control plots were rated blind at various intervals after application. Ratings were based of Percent (%) Visual weed control, where 0 corresponds to no control and 100 corresponds to complete control.
(§3) Data was collected for all trials and analyzed using various statistical methods.
(§4) Colby's equation was used to determine the herbicidal effects expected from the mixtures (Colby, S. R. Calculation of the synergistic and antagonistic response of herbicide combinations. Weeds 1967 15, 20-22).
(§5) The following equation was used to calculate the expected activity of mixtures containing two active ingredients, A and B:
(§6) A=observed efficacy of active ingredient A at the same concentration as used in the mixture;
(§7) B=observed efficacy of active ingredient B at the same concentration as used in the mixture.

[2] = system: redroot pigweed (Amaranthus retroflexus, AMARE)
Experimental: as §1, §2, §3, §4, §5, §6, §7

[3] = system: Venice mallow (Hibiscus trionum, HIBTR)
Experimental: as §1, §2, §3, §4, §5, §6, §7

[4] = propyzamide 0, benfluralin 340 g ai/ha, 50 Days After Application
[5] = propyzamide 210 g ai/ha, benfluralin 0, 50 Days After Application

Structure (SMILES) | % Weed Control CAPBP, Ob (percent control observed) ([1]; propyzamide 0, benfluralin 670 g ai/ha, 50 Days After Application) | % Weed Control AMARE, Ob (percent control observed) [2, 4] | % Weed Control HIBTR, Ob (percent control observed) [3, 4] | % Weed Control CAPBP, Ob (percent control observed) [1, 5] | % Weed Control AMARE, Ob (percent control observed) [2, 5] | % Weed Control HIBTR, Ob (percent control observed) [3, 5]
CCCCN(CC)c1c([N+](=O)[O-])cc(C(F)(F)F)cc1[N+](=O)[O-] [Benfluralin, N-butyl-N-ethyl-2,6-dinitro-4-(trifluoromethyl)-benzenamine] | 3% | 0% | 0% |  |  | 
C#CC(C)(C)NC(=O)c1cc(Cl)cc(Cl)c1 [Propyzamide, 3,5-dichloro-N-(1,1-dimethyl-2-propynyl)-benzamide] |  |  |  | 20% | 13% | 20%
